“Also recorded” adds a separate entry of the source.
How the values were obtained:
[1] = test system: primary human MSCs (hMSCs); test: Alkaline phosphatase measurement (osteoblastic differentiation) with inhibition of mitochondrial fission, hMSCs; format: cell-based; details: for osteoblastic differentiation potential (alkaline phosphatase) of hMSCs: co-treatment with 25 μM Mdivi and PMN
Method: (§1) FIGS. 6A, 6B, and 6C show quantification via flow cytometry of viability, end stage neutrophil (PMNs) engulfment, and efficiency (mean fluorescent intensity, MFI) of hMSCs pre-treated with 25 μM Mdivi for 1 h and then given end stage PMN for 24 h. […] N=3, Mean±SD shown on graphs ** p<0.01, *** p<0.001, (1-test or ANOVA).
Cells were washed with PBS 3× and then fixed with formalin for 30 min at room temperature (RT). Following fixation, the cells were washed with water 3× and left to sit for 15 min at RT while preparing alkaline phosphatase (AP) staining. To prepare the AP stain, 5 mg Naphthol AS MX-PO4 was dissolved in 200 μL of N,N-dimethylformamide (DMF), 25 mL 0.2 M Tris pH 8.3, and 25 mL water. Red Violet LB salt (30 mg) was added to solution, vortexed, and filter through 45 μm filter. After incubation with AP stain for 45 min RT, cells were washed with water 3× and then stained with 2.5% silver nitrate for 30 min RT in a ventilated area, then washed with water and air dried. All plates were imaged via light microscopy and quantified for osteoblastic formation using ImageJ software.
Cells that performed efferocytosis in the presence or absence of Mdivi, were washed and stained for AP as described above. Wells were photographed, and images were analyzed using ImageJ for staining intensity.

[2] = test system: primary human MSCs (hMSCs); test: Efferocytosis assay with pharmacological inhibition of mitochondrial fission, hMSCs; format: cell-based; details: pre-treated with 25 μM Mdivi for 1 h, end stage PMN for 24 h
Method: as §1
Primary human MSCs (hMSCs) cells (Lonza) were plated at 2×10^4 per cm^2 in αMEM+10% FBS+1% pen-strep and incubated in 5% O2/5% CO2/37° C. until 80% confluent. Neutrophils were isolated from human peripheral blood via Mono-Poly resolving medium (MP Biomedicals, Inc) according to manufacturer's instructions and incubated in RPMI+10% FBS+10 mM HEPES overnight (18-20 h) at 37° C./5% CO2 as previously described (Casanova-Acebes M, et al. Cell 2013; 153:1025-35). hMSCs were treated with 25 μM Mdivi for 1 h prior to giving 20 nM efluro670 (ThermoFischer) stained end-stage neutrophils in excess (1:10) for 24 h. Cells were then washed 3× with PBS, imaged, and collected for flow cytometry analysis.
All samples were run on a LSRII flow cytometer: 3 lasers, 355 nm, 488 nm, and 633 nm (BD Biosciences). Analysis was performed using FlowJo version 10.8 (Tree Star). Sorting was done on a FACSAria II with 405-, 488-, 532-, and 633 nm lasers (BD Biosciences). All flow cytometry equipment is housed and quality controlled within the URMC Flow Cytometry core.

[3] = test system: ST2 cells; test: In vitro efferocytosis assay, ST2 cells with end stage neutrophils, flow cytometry
Method: ST2 cells, a bone marrow-derived mesenchymal stromal cell line, were plated at 2×10^4 per cm^2 in αMEM without ascorbic acid (Gibco)+10% FBS+1% pen-strep and incubated in 21% oxygen at 37° C. until 80% confluency. […] End-stage neutrophils were washed with PBS and fluorescently labeled with 20 nM efluro670 (ThermoFischer) according to manufacturer's instructions. Targets (neutrophils or apoptotic lymphocytes) were given in excess (1 MSC: 10 Target) to plated MSCs and incubated for up to 24 h. Cells were then washed 3× with PBS, imaged, and collected for flow cytometry analysis.

[4] = test system: ST2 cells; test: Initial toxicity studies in ST2 cells; format: cell-based, murine; details: ST2 cells (stromal cell line)
[5] = test system: primary human MSCs; test: Initial toxicity studies in primary human MSCs; format: cell-based
[6] = test system: macrophages; details: targeting via clodronate; cited from earlier work

Question: With `COc1cc(-n2c(S)nc3ccccc3c2=O)c(Cl)cc1Cl` [Mdivi] as the compound, how does the “osteoblastic differentiation (alkaline phosphatase) of hMSCs” value ([1]; Mdivi treatment in the absence of PMN) read?
Answer: The value was “trending increase in osteoblastic differentiation; also recorded: increases osteoblastic differentiation independent of efferocytic activity”.

Question: And the “osteoblastic differentiation potential (alkaline phosphatase) of hMSCs” value [1]?
Answer: Its value is “rescued the osteoblastic differentiation potential; also recorded: rescues the defect in osteoblastic differentiation”.

Question: What about the “osteoblastic differentiation potential (alkaline phosphatase) of hMSCs” value ([1]; listed as MDivi) of the same compound?
Answer: The value was “restores MSC osteoblastic differentiation”.

Question: And the “efficiency (MFI) of efferocytosis by hMSCs” value [2]?
Answer: Its value is “decreased”.

Question: And the “overall rate of efferocytosis (end stage PMN engulfment) by hMSCs” value [2]?
Answer: The value was “decreased; also recorded: decreases efferocytic activity in MSCs”.

Question: And the “viability of hMSCs” value [2]?
Answer: The value was “without impacting their viability”.

Question: What about the “overall rate of efferocytosis (end stage PMN engulfment) by hMSCs” value ([2]; listed as MDivi) of the same compound?
Answer: Its value is “decreases human MSC (hMSC) efferocytosis”.

Question: For `CN1CCN(Cc2ccc(Nc3ncc(Cl)c(Nc4ccccc4S(=O)(=O)N(C)C)n3)cc2)CC1` [TP0903], which “efferocytosis by ST2 cells” value ([3]; 3 and 24 hrs, pre treated with 100 nM TP0903 for 1 hr, excess (5 PMN: 1 MSC) end stage hPMNs) is on record?
Answer: The value was “blocks efferocytosis for a short duration”.

Question: And the “neutrophil uptake by MSCs” value ([3]; 3 hours after neutrophil addition, flow cytometry)?
Answer: The value was “significantly reduced”.

Question: What about the toxicity [4] of the same compound?
Answer: Its toxicity is “low toxicity”.

Question: And the toxicity [5]?
Answer: Its toxicity is “low toxicity”.

Question: With `O=P(O)(O)C(Cl)(Cl)P(=O)(O)O` [clodronate] as the compound, how does the bone loss [6] read?
Answer: Its bone loss is “did not result in bone loss”.

Source: patent US20260069610A1, “INHIBITION OF EFFEROCYTOSIS AS A TREATMENT TO PREVENT BONE LOSS AND INCREASE BONE DENSITY AND STRENGTH” (University of Rochester, priority 2022, published 2026)
